Reference: patent publication US7259236B2, “RBP1L1, a novel retinoblastoma binding protein-related gene encoding an antigenic epitope and methods of using thereof” (Regents of the University of California, priority 2001, dated 2007)

Key:
purified specific IgG = assay: ELISA with synthetic peptide antigens; type: binding, human; details: ELISA and Western blot, truncated synthetic peptides; plate coated with 5 μg/ml peptide, IgG 200 μg/ml diluted 1:250 to 1:4,000
Method: The binding of purified specific IgG to synthetic peptides was assessed by ELISA. 96-well polystyrene plates (Reacti-Bind maleic anhydride-activated plates, Pierce) coated with each of the peptides (100 μl of 5 μg/ml) in PBS, incubated overnight at 4° C., and then blocked with 1% bovine serum albumin. Purified specific IgG (200 μg/ml) was serially diluted 1:250, 1:500, 1:1000, 1:2000, and 1:4000, then added in triplicate to peptide-coated wells (500 ng per well), and incubated for 3 hours at room temperature. Peroxidase-conjugated goat anti-human IgG (Pierce) was added at room temperature for 1 hour, followed by the addition of 400 μg/ml of o-phenylenediamine dihydrochloride in peroxide substrate solution. Reactivity was measured at 490 nm. Background absorbance without the primary antibody was subtracted from each sample's absorbance.
(§1) The wells of a 96-well ELISA plate were coated with 100 μl of a peptide (5 μg/ml). The specific human IgG (200 μg/ml) was serially diluted from 1:250 to 1:4,000.

[1] = system: purified specific IgG binding to GST-RBP1L1 fusion protein; assay: Inhibition by synthetic peptides of purified specific IgG binding to GST-RBP1L1 fusion protein (Western blot); design: species or system human; details: peptide 5 μg/ml, purified specific IgG 0.5 μg/ml, fusion protein from clone 151
Method: To determine the minimal number of amino acids necessary for antibody binding, synthetic peptides of various lengths were tested for their ability to inhibit the binding of purified specific IgG to GST-RBP1L1 fusion protein by Western blot analysis. The synthetic peptides tested were:
[…] The antigen and purified IgG mixture was agitated at 4° C. overnight, and the inhibition of antibody binding was assessed by Western blotting using GST-RBP1L1 fusion protein as the target antigen.
The minimum number of amino acids required for the antibody binding was determined by testing various truncated synthetic peptides in ELISAs and on Western blots. The following set of peptides was generated by sequentially reducing the 10-amino acid peptide by one amino acid from either the amino terminus or the carboxyl terminus:
as §1

Row | Sequence | epitope recognized by the purified specific human IgG (purified specific IgG) | ability to competitively inhibit the binding of purified specific IgG to the GST-RBP1L1 fusion protein [1]
1 | IKPSLGSKK (listed as Homo sapiens) | minimal epitope recognized | completely inhibited
2 | IKPSLGSKKN (listed as Homo sapiens) | – | completely inhibited
